Where two headings read alike, the source gives them in different places.
Columns and labels:
rat P2X3 receptor = target: T1, rat P2X3 receptor (Rattus norvegicus, UniProt P49654); assay: P2X3/P2X2/3 FLIPR (Fluorometric Imaging Plate Reader) Assay, P2X3; assay type: cell-based; settings: CHO-K1 cells transfected with rat P2X3; agonist α,β-meATP 1 μM; Table 1; read-out: P2X3 pKi (converted)
T1 construct: expressed in transfected cells; host or cells: CHO-K1
T1 sequence (P49654 1-397): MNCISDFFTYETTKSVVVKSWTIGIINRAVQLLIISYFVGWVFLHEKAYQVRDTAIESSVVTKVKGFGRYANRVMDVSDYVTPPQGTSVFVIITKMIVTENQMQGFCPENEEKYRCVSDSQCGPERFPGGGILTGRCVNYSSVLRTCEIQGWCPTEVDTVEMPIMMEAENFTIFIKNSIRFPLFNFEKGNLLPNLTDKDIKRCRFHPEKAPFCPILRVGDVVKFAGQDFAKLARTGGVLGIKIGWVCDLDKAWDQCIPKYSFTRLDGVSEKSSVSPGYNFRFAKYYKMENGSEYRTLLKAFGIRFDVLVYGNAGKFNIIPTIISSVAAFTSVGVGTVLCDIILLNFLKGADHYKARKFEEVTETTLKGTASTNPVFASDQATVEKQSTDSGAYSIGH
Outline: (§1)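 CHO-K1 cells expressing rat P2X3 or human P2X2/3 were loaded with Fluo-3 AM (2 μM, 1 h, 37 °C) and preincubated with compound for 20 min at room temperature. Calcium influx was evoked by α,β-meATP (1 μM for P2X3, 5 μM for P2X2/3) and peak fluorescence was fitted by nonlinear regression to inhibition curves.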

human P2X2/3 receptor = target: T2, human P2X2/3 receptor (Homo sapiens, UniProt P56373+Q9UBL9); assay: P2X3/P2X2/3 FLIPR (Fluorometric Imaging Plate Reader) Assay, P2X2/3; assay type: cell-based
T2 construct: expressed in transfected cells; host or cells: CHO-K1
T2 sequence (Q9UBL9 1-471): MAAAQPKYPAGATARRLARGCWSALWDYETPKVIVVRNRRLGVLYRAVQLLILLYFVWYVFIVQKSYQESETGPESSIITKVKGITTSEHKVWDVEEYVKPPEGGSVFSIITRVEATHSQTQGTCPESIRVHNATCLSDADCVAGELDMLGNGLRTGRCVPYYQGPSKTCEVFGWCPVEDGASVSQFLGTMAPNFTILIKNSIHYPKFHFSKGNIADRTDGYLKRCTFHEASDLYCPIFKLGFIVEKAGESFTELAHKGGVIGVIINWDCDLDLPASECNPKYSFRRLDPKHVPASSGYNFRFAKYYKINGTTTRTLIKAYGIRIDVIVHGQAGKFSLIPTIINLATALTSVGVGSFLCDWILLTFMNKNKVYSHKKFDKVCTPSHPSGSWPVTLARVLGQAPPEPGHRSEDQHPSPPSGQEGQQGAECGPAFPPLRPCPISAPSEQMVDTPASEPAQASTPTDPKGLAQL
T2 sequence (P56373 1-397): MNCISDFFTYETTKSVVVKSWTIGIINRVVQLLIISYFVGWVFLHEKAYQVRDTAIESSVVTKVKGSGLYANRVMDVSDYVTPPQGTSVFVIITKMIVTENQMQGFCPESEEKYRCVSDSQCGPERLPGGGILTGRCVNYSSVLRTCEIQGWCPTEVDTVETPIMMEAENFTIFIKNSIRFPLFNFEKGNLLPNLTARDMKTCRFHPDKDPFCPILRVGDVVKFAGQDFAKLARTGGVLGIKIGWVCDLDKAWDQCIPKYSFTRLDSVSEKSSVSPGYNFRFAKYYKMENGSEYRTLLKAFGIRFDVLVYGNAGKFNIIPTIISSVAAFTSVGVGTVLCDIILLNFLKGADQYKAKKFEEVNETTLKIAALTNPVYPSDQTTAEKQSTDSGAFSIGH
Outline: as §1

[1] = CHO-K1 cells transfected with human P2X2/3, agonist α,β-meATP 5 μM, Table 1, read-out: P2X2/3 pKi (converted)

Compound	Ki (rat P2X3 receptor) [nM]	Ki (human P2X2/3 receptor; [1]) [nM]	Ki (human P2X2/3 receptor; text b666, CHO-K1 cells, α,β-meATP 5 μM, read-out: pKi for the P2X2/3 receptor (converted)) [nM]
Cc1ccc(-c2cc(C(=O)NC(C)c3cnccn3)cc(-n3ncnc3C(C)C)c2)c(F)c1 (stereo not drawn) [Compound 36, 2′-Fluoro-5-(5-isopropyl-[1,2,4]triazol-1-yl)-4′-methyl-biphenyl-3-carboxylic acid (1-pyrazin-2-yl-ethyl)-amide]	3.72	22.9	~22.9
Cc1ccc(-c2cc(C(=O)NC(C)c3cnccn3)cc(-n3ncnc3C(C)N(C)C)c2)nc1 (stereo not drawn) [Compound 142, 3-[5-(1-Dimethylamino-ethyl)-[1,2,4]triazol-1-yl]-5-(5-methyl-pyridin-2-yl)-N-(1-pyrazin-2-yl-ethyl)-benzamide]	9.12	229	–
CC(C)Oc1ncnn1-c1cc(C(=O)NC(C)c2cnccn2)cc(-c2ccc(Cl)cc2)c1 (stereo not drawn) [Compound 52, 4′-Chloro-5-(5-isopropoxy-[1,2,4]triazol-1-yl)-biphenyl-3-carboxylic acid (1-pyrazin-2-yl-ethyl)-amide]	14.1	891	–
Cc1ccc(-c2cc(C(=O)N[C@@H](C)CO)cc(-n3cnnc3C(C)C)c2)cc1 [Compound 21, 5-(3-Isopropyl-[1,2,4]triazol-4-yl)-4′-methyl-biphenyl-3-carboxylic acid ((S)-2-hydroxy-1-methyl-ethyl)-amide]	977	10000	–
CCCc1ncnn1-c1cc(C(=O)NCc2cnc(C)cn2)cc(-c2ccc(Cl)cn2)c1 [Compound 109, 3-(5-Chloro-pyridin-2-yl)-N-(5-methyl-pyrazin-2-ylmethyl)-5-(5-propyl-[1,2,4]triazol-1-yl)-benzamide]	5.5	372	–
C[C@@H](CO)NC(=O)c1cc(-c2ccc(Cl)cn2)cc(-n2ncnc2C(C)(F)F)c1 [Compound 73, 3-(5-Chloro-pyridin-2-yl)-5-[5-(1,1-difluoro-ethyl)-[1,2,4]triazol-1-yl]-N-((S)-2-hydroxy-1-methyl-ethyl)-benzamide]	8.91	2190	–
Cc1ccc(-c2cc(C(=O)NCc3cnc(C)cn3)cc(-n3ncnc3C3CNC3)c2)nc1 [Compound 151, 3-(5-Azetidin-3-yl-[1,2,4]triazol-1-yl)-N-(5-methyl-pyrazin-2-ylmethyl)-5-(5-methyl-pyridine-2-yl)-benzamide]	676	7240	–
COc1ncnn1-c1cc(C(=O)NC(C)c2cnccn2)cc(-c2ccc(Cl)cc2)c1 (stereo not drawn) [Compound 50, 4′-Chloro-5-(5-methoxy-[1,2,4]triazol-1-yl)-biphenyl-3-carboxylic acid (1-pyrazin-2-yl-ethyl)-amide]	26.9	537	–
Cc1ccc(-c2cc(C(=O)NCc3cnc(C)cn3)cc(-n3ncnc3C3CC3)c2)nc1 [Compound 125, 3-(5-Cyclopropyl-[1,2,4]triazol-1-yl)-N-(5-methyl-pyrazin-2-ylmethyl)-5-(5-methyl-pyridin-2-yl)-benzamide]	19.1	245	–
Cc1ccc(-c2cc(C(=O)NCc3cnc(C)cn3)cc(-c3ncn(C(C)C)n3)c2)cc1 [Compound 117, 5-(1-Isopropyl-1H-[1,2,4]triazol-3-yl)-4′-methyl-biphenyl-3-carboxylic acid (5-methyl-pyrazin-2-ylmethyl)-amide]	11.5	398	–
CCn1cc(-c2cc(C(=O)N[C@H](C)COC)cc(-c3ccc(C)cc3)c2)nn1 [Compound 39, 5-(1-Ethyl-1H-[1,2,3]triazol-4-yl)-4′-methyl-biphenyl-3-carboxylic acid ((R)-2-methoxy-1-methyl-ethyl)-amide]	8510	10000	–
Cc1ccc(-c2cc(C(=O)N[C@@H](C)CO)cc(-n3ncnc3C(C)N(C)C)c2)cc1 (stereo partly drawn) [Compound 105, 5-[5-(1-Dimethylamino-ethyl)-[1,2,4]triazol-1-yl]-4′-methyl-biphenyl-3-carboxylic acid ((S)-2-hydroxy-1-methyl-ethyl)-amide]	5.25	646	–
CC(C)c1ncnn1-c1cc(C(=O)NC2CC2)cc(-c2ccc(Cl)cn2)c1 [Compound 123, 3-(5-Chloro-pyridin-2-yl)-N-cyclopropyl-5-(5-isopropyl-[1,2,4]triazol-1-yl)-benzamide]	11	871	–
CCn1nncc1-c1cc(C(=O)N[C@H](C)COC)cc(-c2ccc(C)cc2)c1 [Compound 37, 5-(3-Ethyl-3H-[1,2,3]triazol-4-yl)-4′-methyl-biphenyl-3-carboxylic acid ((R)-2-methoxy-1-methyl-ethyl)-amide]	380	6760	–
Cc1ccc(-c2cc(C(=O)NCc3cnc(C)cn3)cc(-n3ncnc3C(C)N(C)C)c2)nc1 (stereo not drawn) [Compound 141, 3-[5-(1-Dimethylamino-ethyl)-[1,2,4]triazol-1-yl]-N-(5-methyl-pyrazin-2-ylmethyl)-5-(5-methyl-pyridin-2-yl)-benzamide]	12.3	214	–
Cc1cnc(CNC(=O)c2cc(-c3ccc(Cl)cn3)cc(-n3ncnc3C(C)C)c2)cn1 [Compound 121, 3-(5-Chloro-pyridin-2-yl)-5-(5-isopropyl-[1,2,4]triazol-1-yl)-N-(5-methyl-pyrazin-2-ylmethyl)-benzamide]	5.89	107	–
Cc1ccc(-c2cc(C(=O)NC(C)c3cnccn3)cc(-n3ncnc3C(C)C)c2)cc1 (stereo not drawn) [Compound 18, 5-(5-Isopropyl-[1,2,4]triazol-1-yl)-4′-methyl-biphenyl-3-carboxylic acid (1-pyrazin-2-yl-ethyl)-amide]	3.09	24	–
Cc1ccc(-c2cc(C(=O)NC(C)c3cnccn3)cc(-n3nncc3C)c2)cc1 (stereo not drawn) [Compound 7, 4′-Methyl-5-(5-methyl-[1,2,3]triazol-1-yl)-biphenyl-3-carboxylic acid (1-pyrazin-2-yl-ethyl)-amide]	3.72	191	–
C[C@@H](CO)NC(=O)c1cc(-c2ccc(Cl)cn2)cc(-n2ncnc2C(C)(C)C)c1 [Compound 85, 3-(5-tert-Butyl-[1,2,4]triazol-1-yl)-5-(5-chloro-pyridin-2-yl)-N-((S)-2-hydroxy-1-methyl-ethyl)-benzamide]	41.7	3550	–
Cc1ccc(-c2cc(C(=O)NC(C)c3cnccn3)cc(-n3cnnc3C(C)C)c2)cc1 (stereo not drawn) [Compound 19]	5.89	1290	–
Cc1ccc(-c2cc(C(=O)NCc3cnc(C)cn3)cc(-n3ncnc3CC(F)F)c2)nc1 [Compound 145, 3-[5-(2,2-Difluoro-ethyl)-[1,2,4]triazol-1-yl]-N-(5-methyl-pyrazin-2-ylmethyl)-5-(5-methyl-pyridin-2-yl)-benzamide]	3.31	107	–
CC(NC(=O)c1cc(-c2ccc(Cl)cc2)cc(-n2cncn2)c1)c1cnccn1 (stereo not drawn) [Compound 51, 4′-Chloro-5-[1,2,4]triazol-1-yl-biphenyl-3-carboxylic acid (1-pyrazin-2-yl-ethyl)-amide]	200	2950	–
Cc1ccc(-c2cc(C(=O)NC3CC3)cc(-n3ncnc3C(C)N(C)C)c2)nc1 (stereo not drawn) [Compound 139, N-Cyclopropyl-3-[5-(1-dimethylamino-ethyl)-[1,2,4]triazol-1-yl]-5-(5-methyl-pyridin-2-yl)-benzamide]	27.5	1700	–
Cc1ccc(-c2cc(C(=O)NCc3cnc(C)cn3)cc(-n3ncnc3CC(C)C)c2)nc1 [Compound 119, 3-(5-Isobutyl-[1,2,4]triazol-1-yl)-N-(5-methyl-pyrazin-2-ylmethyl)-5-(5-methyl-pyridin-2-yl)-benzamide]	3.55	23.4	–
CCc1ncnn1-c1cc(C(=O)NC2CC2)cc(-c2ccc(Cl)cn2)c1 [Compound 108, 3-(5-Chloro-pyridin-2-yl)-N-cyclopropyl-5-(5-ethyl-[1,2,4]triazol-1-yl)-benzamide]	97.7	4270	–

Reference: patent US8440708B2, “Triazole-substituted arylamides as P2X3 and P2X2/3 antagonists” (Roche Palo Alto LLC, priority 2007, dated 2013)
